Measurements from PMC11213733, “Computational approaches identify a transcriptomic fingerprint of drug-induced structural cardiotoxicity” (Cell Biology and Toxicology, 2024).
Structures can show the parent of a compound that is named as a salt.

Experiments:
cardiac microtissues [1] = test: Transcriptomic profiling (mRNA-seq) and DESeq2 differential gene expression analysis in cardiac microtissues; details: absolute log2(Fold-Change) > 1, FDR p ≤ 0.05; for number of significant differentially expressed genes, 6hr high / number of significant differentially expressed genes, 48hr high / number of significant differentially expressed genes, 72hr high: high concentration; for number of significant differentially expressed genes, 6hr low / number of significant differentially expressed genes, 48hr low / number of significant differentially expressed genes, 72hr low: low concentration
[2] = ref FDA label, cited from earlier work; for Structural cardiotoxin?: FDA label references heart failure or a decrease in left ventricular ejection fraction; for Functional cardiotoxin?: compound annotation
cardiac microtissues [3] = test: Ingenuity Pathway Analysis over-representation of differentially expressed genes (activation Z-score); assay type: cell-based, human; details: 48hr high; Group 1

O=C1CC2(CCCC2)CC(=O)N1CCCCN1CCN(c2ncccn2)CC1 [Buspirone HCl]
number of significant differentially expressed genes, 6hr high (cardiac microtissues [1]): 42 | number of significant differentially expressed genes, 6hr low (cardiac microtissues [1]): 10 | number of significant differentially expressed genes, 48hr high (cardiac microtissues [1]): 14 | number of significant differentially expressed genes, 48hr low (cardiac microtissues [1]): 6 | number of significant differentially expressed genes, 72hr high (cardiac microtissues [1]): 8 | number of significant differentially expressed genes, 72hr low (cardiac microtissues [1]): 4 | Structural cardiotoxin? [2]: N | Functional cardiotoxin? [2]: N

NC[C@H]1O[C@H](O[C@H]2[C@H](O)[C@@H](O[C@H]3O[C@H](CO)[C@@H](O)[C@H](N)[C@H]3O)[C@H](N)C[C@@H]2N)[C@H](N)C[C@@H]1O [Tobramycin]
Structural cardiotoxin? [2]: N | Functional cardiotoxin? [2]: N

CC(C)NCC(O)c1ccc(O)c(O)c1 (centres unmarked) [Isoproterenol HCl]
Structural cardiotoxin? [2]: Y | Functional cardiotoxin? [2]: Y

O=C1C[C@@H](c2ccc(O)cc2)Oc2cc(O)cc(O)c21 [Narigenin, Naringenin]
Structural cardiotoxin? [2]: N | Functional cardiotoxin? [2]: N

COc1cccc2c1C(=O)c1c(O)c3c(c(O)c1C2=O)C[C@@](O)(C(C)=O)C[C@@H]3O[C@H]1C[C@H](N)[C@H](O)[C@H](C)O1 [Daunorubicin]
Structural cardiotoxin? [2]: Y | Functional cardiotoxin? [2]: Y

COC(=O)[C@@H]1CC2=CC(=O)CC[C@]2(C)[C@@]23O[C@@H]2C[C@@]2(C)[C@@H](CC[C@@]24CCC(=O)O4)[C@H]13 [Eplerenone]
Structural cardiotoxin? [2]: N | Functional cardiotoxin? [2]: Y

CS(=O)(=O)c1ccc(C2=C(c3ccccc3)C(=O)OC2)cc1 [Rofecoxib]
Structural cardiotoxin? [2]: Y | Functional cardiotoxin? [2]: Y

Cc1ccc(-c2cc(C(F)(F)F)nn2-c2ccc(S(N)(=O)=O)cc2)cc1 [Celecoxib]
Structural cardiotoxin? [2]: Y | Functional cardiotoxin? [2]: Y

Cc1ccc(C(=O)Nc2ccc(CN3CCN(C)CC3)c(C(F)(F)F)c2)cc1C#Cc1cnc2cccnn12 [Ponatinib]
Structural cardiotoxin? [2]: Y | Functional cardiotoxin? [2]: Y

O=c1[nH]cc(F)c(=O)[nH]1 [Fluorouracil]
number of significant differentially expressed genes, 6hr high (cardiac microtissues [1]): 0 | number of significant differentially expressed genes, 6hr low (cardiac microtissues [1]): 0 | number of significant differentially expressed genes, 48hr high (cardiac microtissues [1]): 401 | number of significant differentially expressed genes, 48hr low (cardiac microtissues [1]): 1 | number of significant differentially expressed genes, 72hr high (cardiac microtissues [1]): 366 | number of significant differentially expressed genes, 72hr low (cardiac microtissues [1]): 200 | activation Z-score: BER (Base Excision Repair) Pathway (cardiac microtissues [3]): -2.236 | activation Z-score: Cell Cycle Control of Chromosomal Replication (cardiac microtissues [3]): -4.359 | activation Z-score: Cell Cycle Regulation by BTG Family Proteins (cardiac microtissues [3]): -1.342 | activation Z-score: Cyclins and Cell Cycle Regulation (cardiac microtissues [3]): -2.714 | activation Z-score: DNA Methylation and Transcriptional Repression Signaling (cardiac microtissues [3]): -1.414 | activation Z-score: Estrogen-mediated S-phase Entry (cardiac microtissues [3]): -2.333 | activation Z-score: G-Protein Coupled Receptor Signaling (cardiac microtissues [3]): -1 | activation Z-score: Kinetochore Metaphase Signaling Pathway (cardiac microtissues [3]): -3.772 | activation Z-score: Mismatch Repair in Eukaryotes (cardiac microtissues [3]): -2 | activation Z-score: Mitotic Roles of Polo-Like Kinase (cardiac microtissues [3]): -2.309 | activation Z-score: NER (Nucleotide Excision Repair, Enhanced Pathway) (cardiac microtissues [3]): -1.414 | activation Z-score: Protein Kinase A Signaling (cardiac microtissues [3]): 2 | activation Z-score: Pyridoxal 5'-phosphate Salvage Pathway (cardiac microtissues [3]): -1.89 | activation Z-score: RHOGDI Signaling (cardiac microtissues [3]): 2 | activation Z-score: Salvage Pathways of Pyrimidine Ribonucleotides (cardiac microtissues [3]): -2.121 | activation Z-score: Senescence Pathway (cardiac microtissues [3]): 2.324 | activation Z-score: Superpathway of Inositol Phosphate Compounds (cardiac microtissues [3]): -0.447 | Structural cardiotoxin? [2]: Y | Functional cardiotoxin? [2]: Y

CNC(=O)c1ccccc1Sc1ccc2c(/C=C/c3ccccn3)n[nH]c2c1 [Axitinib]
Structural cardiotoxin? [2]: N | Functional cardiotoxin? [2]: Y

N#CC[C@H](C1CCCC1)n1cc(-c2ncnc3[nH]ccc23)cn1 [Ruxolitinib]
Structural cardiotoxin? [2]: N | Functional cardiotoxin? [2]: N

Nc1nc2c(ncn2COCCO)c(=O)[nH]1 [Acyclovir]
number of significant differentially expressed genes, 6hr high (cardiac microtissues [1]): 3 | number of significant differentially expressed genes, 6hr low (cardiac microtissues [1]): 4 | number of significant differentially expressed genes, 48hr high (cardiac microtissues [1]): 0 | number of significant differentially expressed genes, 48hr low (cardiac microtissues [1]): 0 | number of significant differentially expressed genes, 72hr high (cardiac microtissues [1]): 0 | number of significant differentially expressed genes, 72hr low (cardiac microtissues [1]): 0

C[C@@H]1C[C@H]2[C@@H]3CCC4=CC(=O)C=C[C@]4(C)[C@@]3(F)[C@@H](O)C[C@]2(C)[C@@]1(O)C(=O)CO [Dexamethasone]
Structural cardiotoxin? [2]: N | Functional cardiotoxin? [2]: N

O=C(C1CCCCC1)N1CC(=O)N2CCc3ccccc3C2C1 (centres unmarked) [Praziquantel]
Structural cardiotoxin? [2]: N | Functional cardiotoxin? [2]: N

C[C@@H](Oc1cc(-c2cnn(C3CCNCC3)c2)cnc1N)c1c(Cl)ccc(F)c1Cl [Crizotinib]
Structural cardiotoxin? [2]: N | Functional cardiotoxin? [2]: Y

CN1CCN(C2=Nc3cc(Cl)ccc3Nc3ccccc32)CC1 [Clozapine]
number of significant differentially expressed genes, 6hr high (cardiac microtissues [1]): 16 | number of significant differentially expressed genes, 6hr low (cardiac microtissues [1]): 2 | number of significant differentially expressed genes, 48hr high (cardiac microtissues [1]): 25 | number of significant differentially expressed genes, 48hr low (cardiac microtissues [1]): 4 | number of significant differentially expressed genes, 72hr high (cardiac microtissues [1]): 60 | number of significant differentially expressed genes, 72hr low (cardiac microtissues [1]): 1 | Functional cardiotoxin? [2]: Y

Cc1cc(Nc2ncc(Cl)c(Nc3ccccc3S(=O)(=O)C(C)C)n2)c(OC(C)C)cc1C1CCNCC1 [Ceritinib]
Structural cardiotoxin? [2]: N | Functional cardiotoxin? [2]: Y

CCn1cc(C(=O)O)c(=O)c2cc(F)c(N3CCNC(C)C3)c(F)c21 (centres unmarked) [Lomefloxacin]
Structural cardiotoxin? [2]: Y | Functional cardiotoxin? [2]: Y

O=P1(N(CCCl)CCCl)NCCCO1 (centres unmarked) [Cyclophosphamide]
Structural cardiotoxin? [2]: Y | Functional cardiotoxin? [2]: Y

CC1(C)S[C@@H]2[C@H](NC(=O)[C@H](N)c3ccc(O)cc3)C(=O)N2[C@H]1C(=O)O [Amoxacillin]
Structural cardiotoxin? [2]: N | Functional cardiotoxin? [2]: N

CN(C)C/C=C/C(=O)Nc1cc2c(Nc3ccc(F)c(Cl)c3)ncnc2cc1O[C@H]1CCOC1 [Afatinib]
Structural cardiotoxin? [2]: N | Functional cardiotoxin? [2]: N

Cc1ccc(Nc2nccc(N(C)c3ccc4c(C)n(C)nc4c3)n2)cc1S(N)(=O)=O [Pazopanib]
Structural cardiotoxin? [2]: N | Functional cardiotoxin? [2]: Y

COc1cccc2c1C(=O)c1c(O)c3c(c(O)c1C2=O)C[C@@](O)(C(=O)CO)C[C@@H]3O[C@H]1C[C@H](N)[C@@H](O)[C@H](C)O1 [Epirubicin]
Structural cardiotoxin? [2]: Y | Functional cardiotoxin? [2]: Y

COC(=O)Nc1nc2ccc(C(=O)c3ccccc3)cc2[nH]1 [Mebendazole]
number of significant differentially expressed genes, 6hr high (cardiac microtissues [1]): 195 | number of significant differentially expressed genes, 6hr low (cardiac microtissues [1]): 27 | number of significant differentially expressed genes, 48hr high (cardiac microtissues [1]): 407 | number of significant differentially expressed genes, 48hr low (cardiac microtissues [1]): 79 | number of significant differentially expressed genes, 72hr high (cardiac microtissues [1]): 536 | number of significant differentially expressed genes, 72hr low (cardiac microtissues [1]): 192

CCCCNC(=O)NS(=O)(=O)c1ccc(C)cc1 [Tolbutamide]
Structural cardiotoxin? [2]: N | Functional cardiotoxin? [2]: N

Cc1ccc(C)c(OCCCC(C)(C)C(=O)O)c1 [Gemfibrozil]
Structural cardiotoxin? [2]: N | Functional cardiotoxin? [2]: N

CCc1ccc(CCOc2ccc(CC3SC(=O)NC3=O)cc2)nc1 (centres unmarked) [Pioglitazone]
Structural cardiotoxin? [2]: Y | Functional cardiotoxin? [2]: Y

Nc1ccc(S(=O)(=O)c2ccc(N)cc2)cc1 [Dapsone]
Structural cardiotoxin? [2]: N | Functional cardiotoxin? [2]: N

CN(C)CCN(Cc1cccs1)c1ccccn1 [Methapyrilene]
Structural cardiotoxin? [2]: N
